Measurements: patent US8802597B2, “Herbicidal pyrimidines” (E I du Pont de Nemours and Company, priority 2003, dated 2014)
Where two headings read alike, the source gives them in different places.

Experiments:
Assay type in all cases: in vivo
[1] = tested on: barnyardgrass (Echinochloa crus-galli); experiment: Test B flooded paddy test; details: Flood, scale 0 to 100; for pest or weed control at 125 g/ha / pest or weed control at 500 g/ha: Echinochloa crus-galli, read-out: Plant response rating, Barnyardgrass
Outline: (§1)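 Visual injury scoring (0 = no effect, 100 = complete control) versus controls made 13 to 15 days after treatment in the greenhouse. Test species were grown in flooded paddy to the 2-leaf stage: rice, barnyardgrass, umbrella sedge, duck salad.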

rice (Oryza sativa) = experiment: Test B flooded paddy test; details: Flood, scale 0 to 100; for plant injury at 125 g/ha / plant injury at 500 g/ha: Oryza sativa, read-out: Plant response rating, Rice
Outline: as §1

[2] = tested on: umbrella sedge (Cyperus difformis); experiment: Test B flooded paddy test; details: Flood, scale 0 to 100; for pest or weed control at 125 g/ha / pest or weed control at 500 g/ha: Cyperus difformis, read-out: Plant response rating, Sedge, Umbrella
Outline: as §1

[3] = tested on: duck salad (Heteranthera limosa); experiment: Test B flooded paddy test; details: Flood, scale 0 to 100; for pest or weed control at 125 g/ha / pest or weed control at 500 g/ha: Heteranthera limosa, read-out: Plant response rating, Ducksalad
Outline: as §1

[4] = tested on: blackgrass (Alopecurus myosuroides); experiment: Test B postemergence; details: Alopecurus myosuroides, post-emergence
Outline: (§2)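 Formulation: non-phytotoxic solvent blend with surfactant. Timing: preemergence on seeds, postemergence at 1- to 4-leaf (2–18 cm). Assessment: visual, 0–100 against controls, after 13–15 days' greenhouse growth.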

wild oat (Avena fatua) = experiment: Test B postemergence; details: Avena fatua, post-emergence
Outline: as §2

[5] = tested on: Surinam grass (Brachiaria decumbens); experiment: Test B pre/postemergence; details: Urochloa decumbens; for pest or weed control at 62 g/ha: 62 g ai/ha; for pest or weed control at 250 g/ha: 250 g ai/ha
Outline: as §2

[6] = tested on: velvetleaf (Abutilon theophrasti); experiment: Test B pre/postemergence; details: Abutilon theophrasti; for pest or weed control at 62 g/ha: 62 g ai/ha; for pest or weed control at 250 g/ha: 250 g ai/ha
Outline: as §2

[7] = tested on: crabgrass (Digitaria sanguinalis); experiment: Test B pre/postemergence; details: Digitaria sanguinalis; for pest or weed control at 62 g/ha: 62 g ai/ha; for pest or weed control at 250 g/ha: 250 g ai/ha
Outline: as §2

[8] = tested on: morningglory (Ipomoea coccinea); experiment: Test B pre/postemergence; details: Ipomoea; for pest or weed control at 62 g/ha: 62 g ai/ha; for pest or weed control at 250 g/ha: 250 g ai/ha
Outline: as §2

[9] = tested on: barnyardgrass (Echinochloa crus-galli); experiment: Test B pre/postemergence; details: Echinochloa crus-galli; for pest or weed control at 62 g/ha: 62 g ai/ha; for pest or weed control at 250 g/ha: 250 g ai/ha
Outline: as §2

[10] = tested on: giant foxtail (Setaria faberii); experiment: Test B pre/postemergence; details: Setaria faberi; for pest or weed control at 62 g/ha: 62 g ai/ha; for pest or weed control at 250 g/ha: 250 g ai/ha
Outline: as §2

[11] = tested on: wheat (Triticum aestivum); experiment: Test B pre/postemergence; details: Triticum aestivum; for plant injury at 62 g/ha: 62 g ai/ha; for plant injury at 250 g/ha: 250 g ai/ha
Outline: as §2

[12] = tested on: cocklebur (Xanthium strumarium); experiment: Test B pre/postemergence; details: Xanthium strumarium; for pest or weed control at 62 g/ha: 62 g ai/ha; for pest or weed control at 250 g/ha: 250 g ai/ha
Outline: as §2

[13] = tested on: pigweed (Amaranthus retroflexus); experiment: Test B pre/postemergence; details: Amaranthus retroflexus; for pest or weed control at 62 g/ha: 62 g ai/ha; for pest or weed control at 250 g/ha: 250 g ai/ha
Outline: as §2

[14] = tested on: lambsquarters (Chenopodium album); experiment: Test B pre/postemergence; details: Chenopodium album, post-emergence, Postemergence
Outline: as §2

corn (Zea mays) = experiment: Test B pre/postemergence; details: Zea mays; for Corn plant response rating (crop injury, 0 = no effect, 100 = complete kill) at 250 g/ha: 250 g ai/ha
Outline: as §2

[15] = pre-emergence, Preemergence, scale 0 to 100 (0 no effect, 100 complete control), read-out: Plant response rating, Barnyardgrass
[16] = pre-emergence, Preemergence, scale 0 to 100 (0 no effect, 100 complete control), read-out: Plant response rating, Wheat

Cc1ccc(-c2nc(N)c(Cl)c(C(=O)O)n2)cc1 [Compound 91]
Plant response rating, Barnyardgrass ([1]; 125 g ai/ha): 0
Plant response rating, Barnyardgrass ([1]; 500 g ai/ha): 20
Plant response rating, Rice (rice (Oryza sativa); 125 g ai/ha): 0
Plant response rating, Rice (rice (Oryza sativa); 500 g ai/ha): 0
Plant response rating, Sedge, Umbrella ([2]; 125 g ai/ha): 80
Plant response rating, Sedge, Umbrella ([2]; 500 g ai/ha): 90
Plant response rating, Ducksalad ([3]; 125 g ai/ha): 100
Plant response rating, Ducksalad ([3]; 500 g ai/ha): 100

COC(=O)c1nc(C2CC2)nc(N)c1OC [Compound 59]
pest or weed control at 125 g/ha ([1]; 125 g ai/ha): 0%
pest or weed control at 500 g/ha ([1]; 500 g ai/ha): 0%
plant injury at 125 g/ha (rice (Oryza sativa); 125 g ai/ha): 0%
plant injury at 500 g/ha (rice (Oryza sativa); 500 g ai/ha): 0%
pest or weed control at 125 g/ha ([2]; 125 g ai/ha): 0%
pest or weed control at 500 g/ha ([2]; 500 g ai/ha): 0%
pest or weed control at 125 g/ha ([3]; 125 g ai/ha): 0%
pest or weed control at 500 g/ha ([3]; 500 g ai/ha): 0%

COC(=O)c1nc(-c2ccc(Cl)cc2)nc(N)c1Cl [Compound 58, methyl 6-amino-5-chloro-2-(4-chlorophenyl)-4-pyrimidinecarboxylate]
pest or weed control at 125 g/ha ([1]; 125 g ai/ha): 0%
pest or weed control at 500 g/ha ([1]; 500 g ai/ha): 0%
plant injury at 125 g/ha (rice (Oryza sativa); 125 g ai/ha): 0%
plant injury at 500 g/ha (rice (Oryza sativa); 500 g ai/ha): 0%
pest or weed control at 125 g/ha ([2]; 125 g ai/ha): 90%
pest or weed control at 500 g/ha ([2]; 500 g ai/ha): 100%
pest or weed control at 125 g/ha ([3]; 125 g ai/ha): 100%
pest or weed control at 500 g/ha ([3]; 500 g ai/ha): 100%

CCOC(=O)c1nc(C2CC2)nc(NC(C)=O)c1Br [Compound 53]
pest or weed control at 62 g/ha ([4]; 62 g ai/ha, scale 0 to 100 (0 no effect, 100 complete control), read-out: Blackgrass plant response rating): 20%
pest or weed control at 250 g/ha ([4]; 250 g ai/ha, scale 0 to 100, read-out: Plant response rating, Blackgrass): 60%
pest or weed control at 62 g/ha (wild oat (Avena fatua); 62 g ai/ha, scale 0 to 100 (0 no effect, 100 complete control), read-out: Oat, Wild plant response rating): 30%
pest or weed control at 250 g/ha (wild oat (Avena fatua); 250 g ai/ha, scale 0 to 100, read-out: Plant response rating, Oat, Wild): 60%
pest or weed control at 62 g/ha ([5]; post-emergence, Postemergence, scale 0 to 100 (0 no effect, 100 complete control), read-out: Surinam Grass plant response rating): 10%
pest or weed control at 250 g/ha ([5]; post-emergence, Postemergence, scale 0 to 100, read-out: Plant response rating, Surinam Grass): 50%
pest or weed control at 250 g/ha ([5]; pre-emergence, Preemergence, scale 0 to 100 (0 no effect, 100 complete control), read-out: Plant response rating, Surinam Grass): 30%
pest or weed control at 62 g/ha ([5]; pre-emergence, Preemergence, scale 0 to 100, 0 no effect, 100 complete control, read-out: Plant response rating, Surinam Grass): 0%
pest or weed control at 62 g/ha ([6]; post-emergence, Postemergence, scale 0 to 100 (0 no effect, 100 complete control), read-out: Velvetleaf plant response rating): 40%
pest or weed control at 250 g/ha ([6]; post-emergence, Postemergence, scale 0 to 100, read-out: Plant response rating, Velvetleaf): 80%
pest or weed control at 62 g/ha ([6]; pre-emergence, Preemergence, scale 0 to 100, 0 no effect, 100 complete control, read-out: Plant response rating, Velvetleaf): 20%
pest or weed control at 250 g/ha ([6]; pre-emergence, Preemergence, scale 0 to 100 (0 no effect, 100 complete control), read-out: Plant response rating, Velvetleaf): 90%
pest or weed control at 62 g/ha ([7]; post-emergence, Postemergence, scale 0 to 100 (0 no effect, 100 complete control), read-out: Crabgrass plant response rating): 0%
pest or weed control at 250 g/ha ([7]; post-emergence, Postemergence, scale 0 to 100, read-out: Plant response rating, Crabgrass): 30%
pest or weed control at 62 g/ha ([7]; pre-emergence, Preemergence, scale 0 to 100, 0 no effect, 100 complete control, read-out: Plant response rating, Crabgrass): 0%
pest or weed control at 250 g/ha ([7]; pre-emergence, Preemergence, scale 0 to 100 (0 no effect, 100 complete control), read-out: Plant response rating, Crabgrass): 50%
pest or weed control at 62 g/ha ([8]; post-emergence, Postemergence, scale 0 to 100 (0 no effect, 100 complete control), read-out: Morningglory plant response rating): 90%
pest or weed control at 250 g/ha ([8]; post-emergence, Postemergence, scale 0 to 100, read-out: Plant response rating, Morningglory): 90%
pest or weed control at 62 g/ha ([8]; pre-emergence, Preemergence, scale 0 to 100, 0 no effect, 100 complete control, read-out: Plant response rating, Morningglory): 90%
pest or weed control at 250 g/ha ([8]; pre-emergence, Preemergence, scale 0 to 100 (0 no effect, 100 complete control), read-out: Plant response rating, Morningglory): 100%
pest or weed control at 62 g/ha ([9]; post-emergence, Postemergence, scale 0 to 100 (0 no effect, 100 complete control), read-out: Barnyardgrass plant response rating): 80%
pest or weed control at 250 g/ha ([9]; post-emergence, Postemergence, scale 0 to 100, read-out: Plant response rating, Barnyardgrass): 90%
pest or weed control at 62 g/ha [9, 15]: 0%
pest or weed control at 250 g/ha [9, 15]: 70%
pest or weed control at 62 g/ha ([10]; post-emergence, Postemergence, scale 0 to 100 (0 no effect, 100 complete control), read-out: Foxtail, Giant plant response rating): 30%
pest or weed control at 250 g/ha ([10]; post-emergence, Postemergence, scale 0 to 100, read-out: Plant response rating, Foxtail, Giant): 70%
pest or weed control at 250 g/ha ([10]; pre-emergence, Preemergence, scale 0 to 100 (0 no effect, 100 complete control), read-out: Plant response rating, Foxtail, Giant): 50%
pest or weed control at 62 g/ha ([10]; pre-emergence, Preemergence, scale 0 to 100, 0 no effect, 100 complete control, read-out: Plant response rating, Foxtail, Giant): 0%
plant injury at 62 g/ha ([11]; post-emergence, Postemergence, scale 0 to 100 (0 no effect, 100 complete control), read-out: Wheat plant response rating): 30%
plant injury at 250 g/ha ([11]; post-emergence, Postemergence, scale 0 to 100, read-out: Plant response rating, Wheat): 60%
plant injury at 62 g/ha [11, 16]: 0%
plant injury at 250 g/ha [11, 16]: 40%
pest or weed control at 62 g/ha ([12]; post-emergence, Postemergence, scale 0 to 100 (0 no effect, 100 complete control), read-out: Cocklebur plant response rating): 50%
pest or weed control at 250 g/ha ([12]; post-emergence, Postemergence, scale 0 to 100, read-out: Plant response rating, Cocklebur): 90%
pest or weed control at 62 g/ha ([12]; pre-emergence, Preemergence, scale 0 to 100, 0 no effect, 100 complete control, read-out: Plant response rating, Cocklebur): 60%
pest or weed control at 250 g/ha ([12]; pre-emergence, Preemergence, scale 0 to 100 (0 no effect, 100 complete control), read-out: Plant response rating, Cocklebur): 100%
pest or weed control at 62 g/ha ([13]; post-emergence, Postemergence, scale 0 to 100 (0 no effect, 100 complete control), read-out: Pigweed plant response rating): 80%
pest or weed control at 250 g/ha ([13]; post-emergence, Postemergence, scale 0 to 100, read-out: Plant response rating, Pigweed): 100%
pest or weed control at 62 g/ha ([13]; pre-emergence, Preemergence, scale 0 to 100, 0 no effect, 100 complete control, read-out: Plant response rating, Pigweed): 60%
pest or weed control at 250 g/ha ([13]; pre-emergence, Preemergence, scale 0 to 100 (0 no effect, 100 complete control), read-out: Plant response rating, Pigweed): 100%
pest or weed control at 62 g/ha ([14]; 62 g ai/ha, scale 0 to 100 (0 no effect, 100 complete control), read-out: Lambsquarters plant response rating): 90%
pest or weed control at 250 g/ha ([14]; 250 g ai/ha, scale 0 to 100, read-out: Plant response rating, Lambsquarters): 100%
plant injury at 62 g/ha (corn (Zea mays); post-emergence, Postemergence, 62 g ai/ha, scale 0 to 100 (0 no effect, 100 complete control), read-out: Corn plant response rating): 0%
Corn plant response rating (crop injury, 0 = no effect, 100 = complete kill) at 250 g/ha (corn (Zea mays); post-emergence, Postemergence, scale 0 to 100): 70%
Corn plant response rating (crop injury, 0 = no effect, 100 = complete kill) at 62 g/ha (corn (Zea mays); pre-emergence, Preemergence, 62 g ai/ha, scale 0 to 100, 0 no effect, 100 complete control): 0%
Corn plant response rating (crop injury, 0 = no effect, 100 = complete kill) at 250 g/ha (corn (Zea mays); pre-emergence, Preemergence, scale 0 to 100 (0 no effect, 100 complete control)): 0%
